Reference: patent US12110276B2 (Genentech, Inc., priority 2021, dated 2024)

Key:
TEAD1 = TEAD1 (Homo sapiens (Human), UniProt P28347); assay: TR-FRET lipid pocket probe competition assay (Lipid HTRF), TEAD1; type: binding; conditions: 4 hours pre-incubation; read-out: Lipid HTRF TEAD1 IC50;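 note: His-tagged TEAD1 with biotinylated probe, detected via Europium anti-His and XL665 streptavidin, probe displacement lowers TR-FRET signal, IC50 from four-parameter nonlinear fit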
TEAD3 = TEAD3 (Homo sapiens (Human), UniProt Q99594); assay: TR-FRET lipid pocket probe competition assay (Lipid HTRF), TEAD3; type: binding; conditions: 4 hours pre-incubation; read-out: Lipid HTRF TEAD3 IC50
Chain of TEAD3 (Q99594 whole entry, species assumed): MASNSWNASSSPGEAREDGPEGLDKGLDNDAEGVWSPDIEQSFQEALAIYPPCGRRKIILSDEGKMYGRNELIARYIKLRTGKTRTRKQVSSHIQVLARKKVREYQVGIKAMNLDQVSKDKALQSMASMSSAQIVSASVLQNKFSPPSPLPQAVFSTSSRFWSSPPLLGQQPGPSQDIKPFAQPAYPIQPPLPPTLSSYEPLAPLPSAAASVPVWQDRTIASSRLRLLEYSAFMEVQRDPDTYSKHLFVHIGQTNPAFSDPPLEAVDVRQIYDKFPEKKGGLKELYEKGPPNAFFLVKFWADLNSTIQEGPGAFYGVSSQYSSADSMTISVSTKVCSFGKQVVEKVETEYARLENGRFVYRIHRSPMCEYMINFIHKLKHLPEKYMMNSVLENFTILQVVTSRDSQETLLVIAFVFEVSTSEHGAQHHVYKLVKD
Procedure: His-tagged TEAD proteins are pre-incubated with TEAD project compounds for 30 minutes or 4 hours at room temperature. Biotinylated lipid pocket probes are then added to the TEAD/Compound mixture and incubated for 60 minutes at room temperature. The lipid pocket probe competes with the test compound for the TEAD lipid pocket until equilibrium is reached. After 60 minutes, Europium labelled anti-His (Perkin Elmer #AD0110) and XL665 labelled streptavidin (CIS Bio 610SAXAC) are added to the TEAD/test compound/lipid pocket mixture and incubated for 30 minutes or 4 hours. […] If a TEAD lipid pocket binder such as binds and displaces the lipid pocket probe, the disruption of the TEAD:probe interaction results in a decrease in TR-FRET signal. The potency of compounds as TEAD lipid pocket binders is determined by IC50 value generated using a non-linear 4 parameter curve fit.

TEAD4 = TEAD4 (Homo sapiens (Human), UniProt Q15561); assay: TR-FRET lipid pocket probe competition assay (Lipid HTRF), TEAD4; type: binding; conditions: 4 hours pre-incubation; read-out: Lipid HTRF TEAD4 IC50;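 note: His-tagged TEAD4 with biotinylated lipid-pocket probe, read by Europium anti-His and XL665 streptavidin, where probe displacement lowers the TR-FRET signal, IC50 from a four-parameter fit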
Chain of TEAD4 (Q15561 whole entry, species assumed): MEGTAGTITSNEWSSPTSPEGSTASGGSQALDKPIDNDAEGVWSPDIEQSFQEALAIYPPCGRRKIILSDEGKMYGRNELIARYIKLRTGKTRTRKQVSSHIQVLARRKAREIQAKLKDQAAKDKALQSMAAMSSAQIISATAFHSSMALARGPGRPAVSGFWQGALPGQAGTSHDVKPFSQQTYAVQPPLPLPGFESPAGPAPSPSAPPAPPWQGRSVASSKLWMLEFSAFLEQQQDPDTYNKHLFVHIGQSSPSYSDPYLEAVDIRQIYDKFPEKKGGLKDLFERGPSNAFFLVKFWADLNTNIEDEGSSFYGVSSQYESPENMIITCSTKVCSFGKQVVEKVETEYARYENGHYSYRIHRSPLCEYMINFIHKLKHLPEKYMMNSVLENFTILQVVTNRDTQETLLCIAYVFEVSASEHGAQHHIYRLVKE

TEAD2 = TEAD2 (Homo sapiens (Human), UniProt Q15562);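 note: TR-FRET competition assay with His-tagged TEAD protein and a biotinylated lipid pocket probe, compound pre-incubated 30 min or 4 h at room temperature, displacement lowers signal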
Chain of TEAD2 (Q15562 whole entry, species assumed): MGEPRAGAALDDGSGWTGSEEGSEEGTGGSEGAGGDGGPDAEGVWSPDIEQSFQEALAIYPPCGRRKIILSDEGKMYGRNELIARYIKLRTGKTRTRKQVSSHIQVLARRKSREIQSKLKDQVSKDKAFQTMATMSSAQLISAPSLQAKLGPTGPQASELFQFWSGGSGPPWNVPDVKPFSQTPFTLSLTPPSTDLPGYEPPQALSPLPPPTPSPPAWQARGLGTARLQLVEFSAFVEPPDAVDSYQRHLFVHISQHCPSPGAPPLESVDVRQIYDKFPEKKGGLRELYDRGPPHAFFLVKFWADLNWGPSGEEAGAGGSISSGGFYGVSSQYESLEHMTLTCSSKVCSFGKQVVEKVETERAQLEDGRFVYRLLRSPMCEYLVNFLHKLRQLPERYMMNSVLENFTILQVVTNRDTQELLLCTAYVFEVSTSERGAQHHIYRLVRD

Chain of TEAD1 (P28347 whole entry, species assumed): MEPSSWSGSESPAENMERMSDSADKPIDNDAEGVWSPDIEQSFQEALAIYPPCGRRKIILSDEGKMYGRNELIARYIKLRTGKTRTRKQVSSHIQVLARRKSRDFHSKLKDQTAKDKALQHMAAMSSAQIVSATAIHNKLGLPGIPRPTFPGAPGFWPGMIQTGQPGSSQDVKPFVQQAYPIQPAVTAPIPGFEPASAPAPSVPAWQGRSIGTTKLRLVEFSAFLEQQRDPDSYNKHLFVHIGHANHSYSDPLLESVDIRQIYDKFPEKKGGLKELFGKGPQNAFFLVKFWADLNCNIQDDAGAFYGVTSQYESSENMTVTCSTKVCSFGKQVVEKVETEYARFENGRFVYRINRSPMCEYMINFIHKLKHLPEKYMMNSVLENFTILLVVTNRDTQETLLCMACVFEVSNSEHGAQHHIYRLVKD

Row | Structure (SMILES) | IC50 (TEAD1) [µM] | IC50 (TEAD3) [µM] | IC50 (TEAD4) [µM] | IC50 (TEAD2) [µM]
1 | C=CC(=O)NCc1nn(-c2ccc(OC(F)(F)F)cc2)c2nccc(N3CCC(O)CC3)c12 [Compound 91, N-((4-(4-hydroxypiperidin-1-yl)-1-(4-(trifluoromethoxy)phenyl)-1H-pyrazolo[3,4-b]pyridin-3-yl)methyl)acrylamide] | 0.044 | 41 | 0.0285 | 0.066
2 | C=CC(=O)NCc1nn(-c2ccc(OC(F)(F)F)cc2)c2nccc(N3CC(NC)C3)c12 [Compound 122, N-((4-(3-(methylamino)azetidin-1-yl)-1-(4-(trifluoromethoxy)phenyl)-1H-pyrazolo[3,4-b]pyridin-3-yl)methyl)acrylamide] | 0.19 | 21 | 0.039 | 2
3 | C=CC(=O)NCc1nn(-c2ccc(OC(F)(F)F)cc2)c2nccc([C@H]3C[C@@H](O)C3)c12 [Compound 38, N-((4-(cis-3-Hydroxycyclobutyl)-1-(4-(trifluoromethoxy)phenyl)-1H-pyrazolo[3,4-b]pyridin-3-yl)methyl)acrylamide] | 0.18 | 50 | 0.039 | 0.1
4 | C=C(F)C(=O)N1CC(c2nn(-c3ccc(OC(F)(F)F)cc3)c3nccc(-n4ccnc4)c23)C1 [Compound 64, 1-(3-(4-(1H-Imidazol-1-yl)-1-(4-(trifluoromethoxy)phenyl)-1H-pyrazolo[3,4-b]pyridin-3-yl)azetidin-1-yl)-2-fluoroprop-2-en-1-one] | 0.023 | 1.3 | 0.021 | 0.17
5 | O=C(/C=C\Cl)NCc1nn(-c2ccc(OC(F)(F)F)cc2)c2nccc([C@@H](O)CO)c12 [Compound 26, (R,Z)-3-chloro-N-((4-(1,2-dihydroxyethyl)-1-(4-(trifluoromethoxy)phenyl)-1H-pyrazolo[3,4-b]pyridin-3-yl)methyl)acrylamide] | 0.14 | 50 | 0.014 | 0.16
6 | O=C(/C=C/CO)N1CC(c2nn(-c3ccc(OC(F)(F)F)cc3)c3nccc(-c4cn[nH]c4)c23)C1 [Compound 50, (E)-1-(3-(4-(1H-Pyrazol-4-yl)-1-(4-(trifluoromethoxy)phenyl)-1H-pyrazolo[3,4-b]pyridin-3-yl)azetidin-1-yl)-4-hydroxybut-2-en-1-one] | 0.024 | 0.2 | 0.0095 | 0.075
7 | C=CC(=O)NCc1nn(-c2ccc(OC(F)(F)F)cc2)c2nccc(N3CC(O)C3)c12 [Compound 106, N-((4-(3-hydroxyazetidin-1-yl)-1-(4-(trifluoromethoxy)phenyl)-1H-pyrazolo[3,4-b]pyridin-3-yl)methyl)acrylamide] | 0.0155 | 0.935 | 0.00675 | 0.061
8 | C=CC(=O)NCc1nn(-c2ccc(S(F)(F)(F)(F)F)cc2)c2ncccc12 [Compound 13, N-((1-(4-(pentafluoro-λ^6-sulfanyl)phenyl)-1H-pyrazolo[3,4-b]pyridin-3-yl)methyl)acrylamide] | 0.01 | 0.23 | 0.0086 | 0.33
9 | C=CC(=O)N1CC(c2nn(-c3ccc(OC(F)(F)F)cc3)c3nccc([C@H](O)CO)c23)C1 [Compound 113, (S)-1-(3-(4-(1,2-Dihydroxyethyl)-1-(4-(trifluoromethoxy)phenyl)-1H-pyrazolo[3,4-b]pyridin-3-yl)azetidin-1-yl)prop-2-en-1-one] | 0.019 | 0.02 | 0.0045 | 0.0065
10 | C=CC(=O)NCc1nn(-c2ccc(OC(F)(F)F)cc2)c2nccc(C(=O)NCCO)c12 [Compound 25, 3-(Acrylamidomethyl)-N-(2-hydroxyethyl)-1-(4-(trifluoromethoxy)phenyl)-1H-pyrazolo[3,4-b]pyridine-4-carboxamide] | 0.96 | 3.7 | 0.095 | 6
11 | C=C(F)C(=O)N1CC(c2nn(-c3ccc(OC(F)(F)F)cc3)c3nccc(NC(=O)CO)c23)C1 [Compound 42, N-(3-(1-(2-Fluoroacryloyl)azetidin-3-yl)-1-(4-(trifluoromethoxy)phenyl)-1H-pyrazolo[3,4-b]pyridin-4-yl)-2-hydroxyacetamide] | 0.02 | 0.027 | 0.025 | 0.2
12 | C=CC(=O)NCc1nn(-c2ccc(S(F)(F)(F)(F)F)cc2)c2cccc([C@H](O)CO)c12 (single isomer, unassigned) [Compound 11, N-((4-(1,2-dihydroxyethyl)-1-(4-(pentafluoro-λ^6-sulfanyl)phenyl)-1H-indazol-3-yl)methyl)acrylamide] | 0.023 | 1.3 | 0.017 | 0.086
13 | C=CC(=O)NCc1nn(-c2ccc(OC(F)(F)F)cc2)c2nccc(N3CC(C)(O)C3)c12 [Compound 74, N-((4-(3-hydroxy-3-methylazetidin-1-yl)-1-(4-(trifluoromethoxy)phenyl)-1H-pyrazolo[3,4-b]pyridin-3-yl)methyl)acrylamide] | 0.032 | 4.1 | 0.0048 | 0.14
14 | C=CC(=O)NCc1nn(-c2ccc(OC(F)(F)F)cc2)c2nccc(N3CC(CO)C3)c12 [Compound 43, N-((4-(3-(hydroxymethyl)azetidin-1-yl)-1-(4-(trifluoromethoxy)phenyl)-1H-pyrazolo[3,4-b]pyridin-3-yl)methyl)acrylamide] | 0.013 | 0.78 | 0.0046 | 0.054
15 | C=CC(=O)NCc1nn(-c2ccc(OC(F)(F)F)cc2)c2nccc(CN(C)C)c12 [Compound 105, N-((4-((dimethylamino)methyl)-1-(4-(trifluoromethoxy)phenyl)-1H-pyrazolo[3,4-b]pyridin-3-yl)methyl)acrylamide] | 1 | 50 | 0.45 | 0.62
16 | Cc1ccnc2c1c(C1CN(C(=O)/C=C/CO)C1)nn2-c1ccc(OC(F)(F)F)cc1 [Compound 96, (E)-4-Hydroxy-1-(3-(4-methyl-1-(4-(trifluoromethoxy)phenyl)-1H-pyrazolo[3,4-b]pyridin-3-yl)azetidin-1-yl)but-2-en-1-one] | 0.01 | 0.038 | 0.0037 | 0.03
17 | C=CC(=O)N(C)Cc1nn(-c2ccc(OC(F)(F)F)cc2)c2nccc(CO)c12 [Compound 55, N-((4-(Hydroxymethyl)-1-(4-(trifluoromethoxy)phenyl)-1H-pyrazolo[3,4-b]pyridin-3-yl)methyl)-N-methylacrylamide] | 0.017 | 0.16 | 0.012 | 0.12

Next, values leading:

Row | IC50 (TEAD1) [µM] | IC50 (TEAD3) [µM] | IC50 (TEAD4) [µM] | IC50 (TEAD2) [µM] | Structure (SMILES)
18 | 0.033 | 0.74 | 0.0078 | 0.025 | O=C(NCc1nn(-c2ccc(OC(F)(F)F)cc2)c2nccc([C@H](O)CO)c12)C1=CCC1 [Compound 156, (S)-N-((4-(1,2-Dihydroxyethyl)-1-(4-(trifluoromethoxy)phenyl)-1H-pyrazolo[3,4-b]pyridin-3-yl)methyl)cyclobut-1-enecarboxamide]
19 | 0.032 | 50 | 0.017 | 0.65 | C=C(F)C(=O)N1CC(c2nn(-c3ccc(OC(F)(F)F)cc3)c3nccc(-c4cnn(CCS(C)(=O)=O)c4)c23)C1 [Compound 179, 2-fluoro-1-(3-(4-(1-(2-(methylsulfonyl)ethyl)-1H-pyrazol-4-yl)-1-(4-(trifluoromethoxy)phenyl)-1H-pyrazolo[3,4-b]pyridin-3-yl)azetidin-1-yl)prop-2-en-1-one]
20 | 0.32 | 6.9 | 0.16 | 0.35 | C=C(F)C(=O)NCc1nn(-c2ccc(OC(F)(F)F)cc2)c2nccc([C@H](O)CO)c12 [Compound 155, (S)-N-((4-(1,2-Dihydroxyethyl)-1-(4-(trifluoromethoxy)phenyl)-1H-pyrazolo[3,4-b]pyridin-3-yl)methyl)-2-fluoroacrylamide]
21 | 0.022 | 50 | 0.0044 | 0.12 | C=CC(=O)NCc1nn(-c2ccc(OC(F)(F)F)cc2)c2nccc(OCCO)c12 [Compound 126, N-((4-(2-Hydroxyethoxy)-1-(4-(trifluoromethoxy)phenyl)-1H-pyrazolo[3,4-b]pyridin-3-yl)methyl)acrylamide]
22 | 0.024 | 50 | 0.037 | 0.062 | C=C(F)C(=O)N1CC(c2nn(-c3ccc(OC(F)(F)F)cc3)c3nccc(-c4cnn(CC(N)=O)c4)c23)C1 [Compound 181, 2-(4-(3-(1-(2-fluoroacryloyl)azetidin-3-yl)-1-(4-(trifluoromethoxy)phenyl)-1H-pyrazolo[3,4-b]pyridin-4-yl)-1H-pyrazol-1-yl)acetamide]
23 | 0.14 | 0.79 | 0.1 | 2.3 | C=C(F)C(=O)N1CC(c2nn(-c3ccc(OC(F)(F)F)cc3C)c3nccc(CO)c23)C1 [Compound 184, 2-fluoro-1-(3-(4-(hydroxymethyl)-1-(2-methyl-4-(trifluoromethoxy)phenyl)-1H-pyrazolo[3,4-b]pyridin-3-yl)azetidin-1-yl)prop-2-en-1-one]
24 | 0.23 | 4.4 | 0.44 | 0.72 | C=CC(=O)NCc1nn(-c2ccc(OC(F)F)cc2)c2nccc(CO)c12 [Compound 140, N-((1-(4-(difluoromethoxy)phenyl)-4-(hydroxymethyl)-1H-pyrazolo[3,4-b]pyridin-3-yl)methyl)acrylamide]
25 | 0.057 | 1.7 | 0.035 | 0.21 | C=CC(=O)NCc1nn(-c2ccc(OC(F)(F)F)cc2)c2nccc(-c3cnn(CCOC)c3)c12 [Compound 167, N-[[4-[1-(2-methoxyethyl)pyrazol-4-yl]-1-[4-(trifluoromethoxy)phenyl]pyrazolo[3,4-b]pyridin-3-yl]methyl]prop-2-enamide]
